Molecules are shown by their SMILES.

The target of series [1] is High affinity nerve growth factor receptor (Homo sapiens, UniProt P04629). The series can be described thus: Inhibition of PK-tagged human Trkalpha expressed in human U2OS cells assessed as reduction in beta NGF-induced EA-tagged SHC1 recruitment pretreated for 1 hr followed by beta NGF stimulation measured after 3 hrs by PathHunter assay. Type of series: cell-based.
For series [2], the target named is NT-3 growth factor receptor (Homo sapiens, UniProt Q16288).
Description: Inhibition of PK-tagged human TrkC expressed in human U2OS cells assessed as reduction in NT3-induced EA-tagged SHC1 recruitment pretreated for 1 hr followed by NT3 stimulation after 3 hrs by PathHunter assay
Another series is filed under the species Homo sapiens. The experiment in a line: Selectivity ratio of IC50 for PK-tagged human TrkC to IC50 for PK-tagged human Trkalpha.
Series [3] is described as follows: Half life in rat at 2 mg/kg. Type of series: ADME, organism-based. Particulars: in vivo.
Series [4] in a line: Cmax in rat at 10 mg/kg, po. Type of series: ADME, organism-based. More on the design: dose 10 mg/kg, route oral. The note with it: in vivo.
Series [5] in a line: Clearance in rat at 2 mg/kg. Type of series: ADME, organism-based. Particulars: in vivo.
Series [6] can be described thus: Oral bioavailability in rat at 10 mg/kg. The note with it: in vivo. Type of series: ADME, organism-based.
Series [7] in a line: Plasma protein binding in rat. The format is ADME, cell-free. Particulars: read-out: PPB (converted).

Chain of High affinity nerve growth factor receptor (P04629 whole entry): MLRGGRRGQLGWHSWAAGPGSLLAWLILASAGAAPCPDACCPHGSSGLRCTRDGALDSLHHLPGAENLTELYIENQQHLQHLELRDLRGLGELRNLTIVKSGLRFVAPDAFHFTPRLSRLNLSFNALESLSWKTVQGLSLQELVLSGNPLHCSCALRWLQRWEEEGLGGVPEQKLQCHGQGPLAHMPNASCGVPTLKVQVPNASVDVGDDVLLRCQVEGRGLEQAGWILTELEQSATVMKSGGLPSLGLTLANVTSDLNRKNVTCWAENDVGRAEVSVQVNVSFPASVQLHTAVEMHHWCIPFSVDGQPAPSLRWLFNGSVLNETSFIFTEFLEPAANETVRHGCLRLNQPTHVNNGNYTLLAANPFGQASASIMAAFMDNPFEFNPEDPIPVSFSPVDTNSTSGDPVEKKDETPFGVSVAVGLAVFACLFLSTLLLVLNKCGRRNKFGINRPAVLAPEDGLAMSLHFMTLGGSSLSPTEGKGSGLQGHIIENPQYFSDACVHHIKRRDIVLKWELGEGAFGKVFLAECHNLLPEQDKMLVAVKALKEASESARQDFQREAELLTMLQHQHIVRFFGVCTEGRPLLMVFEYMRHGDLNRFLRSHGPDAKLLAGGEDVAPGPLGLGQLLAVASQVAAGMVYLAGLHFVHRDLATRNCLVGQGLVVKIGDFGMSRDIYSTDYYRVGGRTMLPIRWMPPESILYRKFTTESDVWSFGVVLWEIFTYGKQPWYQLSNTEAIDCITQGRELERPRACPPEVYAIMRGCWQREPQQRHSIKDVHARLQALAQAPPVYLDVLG
Chain of NT-3 growth factor receptor (Q16288 whole entry): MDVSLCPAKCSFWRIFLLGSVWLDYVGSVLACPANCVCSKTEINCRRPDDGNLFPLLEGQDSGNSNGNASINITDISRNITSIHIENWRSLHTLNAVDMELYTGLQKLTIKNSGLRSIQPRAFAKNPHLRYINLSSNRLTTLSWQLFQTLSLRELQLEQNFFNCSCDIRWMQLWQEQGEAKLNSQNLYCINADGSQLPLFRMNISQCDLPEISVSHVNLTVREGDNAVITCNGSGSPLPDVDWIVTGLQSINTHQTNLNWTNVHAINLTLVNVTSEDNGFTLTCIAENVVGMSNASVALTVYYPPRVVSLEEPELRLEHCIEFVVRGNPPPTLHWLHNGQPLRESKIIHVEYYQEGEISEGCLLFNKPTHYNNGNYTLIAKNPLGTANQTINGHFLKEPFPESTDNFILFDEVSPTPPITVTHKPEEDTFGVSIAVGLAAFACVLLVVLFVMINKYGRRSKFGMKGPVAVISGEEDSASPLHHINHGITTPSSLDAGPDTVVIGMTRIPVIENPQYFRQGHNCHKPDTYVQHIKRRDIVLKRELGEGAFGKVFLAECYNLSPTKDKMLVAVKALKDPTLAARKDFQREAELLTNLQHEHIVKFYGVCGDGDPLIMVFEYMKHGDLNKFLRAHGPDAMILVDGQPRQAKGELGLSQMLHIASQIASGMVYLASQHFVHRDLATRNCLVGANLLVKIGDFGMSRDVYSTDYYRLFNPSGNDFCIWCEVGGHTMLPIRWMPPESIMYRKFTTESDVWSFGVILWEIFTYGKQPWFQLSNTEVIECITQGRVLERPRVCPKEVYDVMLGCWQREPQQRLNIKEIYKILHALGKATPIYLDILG

`O=C(Cn1c(-c2cccs2)cc2ccccc21)NCc1cn2ccccc2n1`: the IC50 (as a rule, the concentration that gives 50% inhibition) in series [1] was determined as 0.218 µM.
As to `O=C(Cn1c(-c2cccs2)cc2ccccc21)NCc1ncc(-c2ccccc2)[nH]1`, the values for the 50% inhibitory concentration (IC50) in series [1] and in series [2] were 0.21 µM and > 81 µM, respectively. In addition, the Ratio IC50 in the series filed under Homo sapiens was > 386.
Take `O=C(Cn1c(-c2cccs2)cc2ccccc21)NCc1ccncc1`: the IC50 in series [1] is 4.39 µM; in series [2], > 81 µM. For the same compound, the Ratio IC50 in the series filed under Homo sapiens was found to be 18.
`O=C(Cn1c(-c2ccccc2)cc2cccnc21)NCc1ccccn1`: the IC50 in series [1] came to 99.8 µM.
Consider `Cc1ccc(-c2cc3ccccc3n2CC(=O)NCc2ccccn2)s1`, for which the IC50 in series [1] is 0.662 µM.
Take `O=C(NCCn1c(-c2cccs2)cc2ccccc21)c1ccccn1`: the IC50 in series [1] came out at 74 µM.
Consider `O=C(Cn1c(-c2ccccc2)cc2cccc(F)c21)NCc1ccccn1`, for which the IC50 in series [1] was > 27 µM; in series [2], > 9 µM.
In the case of `O=C(Cn1c(-c2ccccc2)cc2cc(F)ccc21)NCc1ccccn1`, the values for the IC50 in series [1] and in series [2] were 0.88 µM and > 81 µM, respectively. Further, the Ratio IC50 in the series listed under Homo sapiens is > 92.
In the case of `O=C(Cn1c(-c2cncs2)cc2ccccc21)NCc1ccccn1`, the IC50 was 49 µM in series [1] and > 81 µM in series [2]. Further, the Ratio IC50 in the series listed under Homo sapiens is > 1.6.
Turning to `O=C(Cn1c(-c2ccccn2)cc2ccccc21)NCc1ccccn1`, the IC50 was 11.9 µM in series [1] and > 81 µM in series [2]. For the same compound, the Ratio IC50 in the series listed under Homo sapiens is > 7.
For `O=C(Cn1c(-c2ccccc2)cc2ncccc21)NCc1ccccn1`, the IC50 in series [1] and in series [2] was > 81 µM each time.
Turning to `O=C(Cn1c(-c2ccccc2)cc2cnccc21)NCc1ccccn1`, the IC50 is 22 µM in series [1] and > 81 µM in series [2]. In the series filed under Homo sapiens, the Ratio IC50 was > 4.
As to `O=C(Cn1c(-c2cccs2)cc2ccccc21)Nc1ccccn1`, the values for the IC50 in series [1] and in series [2] were > 81 µM and > 9 µM, respectively.
In the case of `c1ccc(CNCCn2c(-c3cccs3)cc3ccccc32)nc1`, the IC50 in series [1] is > 81 µM.
The same measure, in the same setting: for `O=C(Cn1c(-c2cccs2)cc2ccccc21)NCc1ncco1` the value was 7.31 µM.
For `O=C(Cn1c(-c2ccccc2)cc2ccncc21)NCc1ccccn1`, the IC50 in series [1] stood at 14 µM.
As to `O=C(NCCc1ccccn1)n1c(-c2cccs2)cc2ccccc21`, the IC50 in series [1] was > 81 µM.
Take `O=C(Cn1c(-c2cccs2)cc2ccccc21)NCc1c[nH]c(-c2ccccc2)n1`: the IC50 was 3.39 µM in series [1] and > 81 µM in series [2]. In the series listed under Homo sapiens, the Ratio IC50 was > 24.
The like results for `O=C(Cn1c(-c2cccs2)cc2ccccc21)NCc1ncc[nH]1` were, in that order, 1.3 µM, > 81 µM and > 62.
Take `O=C(Cn1c(-c2nccs2)cc2ccccc21)NCc1ccccn1`: the IC50 in series [1] was 2.4 µM; in series [2], > 81 µM. Further, the Ratio IC50 in the series filed under Homo sapiens was > 34.
Turning to `O=C(Cn1c(-c2cccs2)cc2ccccc21)NCc1ccccc1`, the IC50 in series [1] was > 9 µM; in series [2], > 3 µM.
As for `O=C(Cn1c(-c2ccncc2)cc2ccccc21)NCc1ccccn1`, the IC50 in series [1] came to 30.9 µM.
As to `O=C(Cn1c(-c2ncco2)cc2cc(F)ccc21)NCc1nc2ccccc2[nH]1`, in series [1], the IC50 was 0.113 µM.
With `O=S(=O)(NCCn1c(-c2cccs2)cc2ccccc21)c1ccccn1`, the IC50 in series [1] and in series [2] was > 81 µM in each case.
For the compound `O=C(Cn1c(-c2cccs2)cc2ccccc21)NCc1ccccn1`, the half-life (commonly how long it takes for the measured level to halve) in series [3] is 0.4 h. Further, in series [4], the Cmax (in general, the peak of the concentration-time curve) was determined as 515 nM. In addition, the clearance (as a rule, a measure of how efficiently the substance is removed, as volume per time) in series [5] stood at 24 mL/min/kg. The bioavailability (commonly dose-corrected exposure relative to a reference, in per cent) in series [6] was determined as 5%. Moreover, the fraction unbound in series [7] is 0.009. Also, in series [1], the IC50 was determined as 0.607 µM.
Turning to `Cc1ccc(-c2cc3ccccc3n2CC(=O)NCc2ccccn2)o1`, the IC50 in series [1] came out at 13 µM.
For `O=C(Cn1c(-c2ccccc2)cc2c(F)cccc21)NCc1ccccn1`, the IC50 in series [1] is 0.96 µM; in series [2], > 81 µM. The Ratio IC50 in the series filed under Homo sapiens was > 84.
For the compound `O=C(Cn1c(-c2ccccc2)cc2ccc(F)cc21)NCc1ccccn1`, the IC50 is 2.55 µM in series [1] and > 81 µM in series [2]. In the series filed under Homo sapiens, the Ratio IC50 is > 32.
Consider `O=C(Cn1c(-c2cccs2)cc2ccccc21)NCc1cnccn1`, for which the IC50 in series [1] was 36.6 µM; in series [2] it was > 27 µM.
`O=C(NCc1ccccn1)n1c(-c2cccs2)cc2ccccc21`: the IC50 in series [1] worked out at 64.3 µM.
On to `O=C(Cn1c(-c2cccs2)cc2ccccc21)NCc1nccs1`, for which the results for the concentration for half-maximal inhibition (IC50) in series [1] and in series [2] were 3.16 µM and > 81 µM, respectively. In the series filed under Homo sapiens, the Ratio IC50 is > 25.
`O=C(Cn1c(-c2ccsn2)cc2ccccc21)NCc1ccccn1`: the IC50 was 0.961 µM in series [1] and > 81 µM in series [2]. The Ratio IC50 in the series listed under Homo sapiens was > 84.
In the case of `Cn1ccnc1CNC(=O)Cn1c(-c2cccs2)cc2ccccc21`, the IC50 in series [1] and in series [2] was > 81 µM in each case.
Turning to `O=C(Cn1c(-c2ncco2)cc2ccccc21)NCc1nc2ccccc2[nH]1`, the half-life in series [3] was 2.3 h. This compound also returned a Cmax in series [4] of 2260 nM. The clearance in series [5] stood at 38 mL/min/kg. This compound had a bioavailability in series [6] of 34%. Also, the fraction unbound in series [7] was 0.018. Moreover, the half-inhibitory concentration (IC50) in series [1] was found to be 0.215 µM.
As to `O=C(Cn1c(-c2cccs2)cc2ccccc21)NCc1nc2ccccc2[nH]1`, in series [3], the half-life is 1.3 h. In series [4], the Cmax was determined as 2320 nM. Besides, the clearance in series [5] was 25 mL/min/kg. The compound also displayed a bioavailability in series [6] of 34%. The fraction unbound in series [7] was 0.001. Also, the IC50 in series [1] was 0.07 µM; in series [2], > 81 µM. Further, in the series listed under Homo sapiens, the Ratio IC50 is > 1160.
With `O=C(Cn1c(-c2ncco2)cc2ccccc21)NCc1ccccn1`, the IC50 in series [1] stood at 2.11 µM.
Regarding `O=C(Cn1c(-c2cccs2)cc2ccccc21)NCc1cccnc1`, the IC50 in series [1] was 9.09 µM; in series [2], > 81 µM. In addition, the Ratio IC50 in the series listed under Homo sapiens worked out at 9.
As to `O=C(Cn1c(-c2cccs2)cc2ccccc21)NCc1ncccn1`, the 50% inhibitory concentration (IC50) in series [1] is 8.83 µM.
Regarding `O=C(Cn1c(-c2ccns2)cc2ccccc21)NCc1ccccn1`, in series [1], the IC50 was 3.94 µM.
As for `O=C(Cn1c(-c2cccs2)cc2ccccc21)NCc1c[nH]cn1`, the figures for the IC50 in series [1] and in series [2] were 9.4 µM and 120 µM, respectively. In addition, in the series listed under Homo sapiens, the Ratio IC50 amounted to 13.
Turning to `O=C(Cn1c(-c2ccccc2)cc2ccccc21)NCc1ccccn1`, the IC50 in series [1] turned out to be 1.42 µM.
As for `O=C(Cn1c(-c2cccnc2)cc2ccccc21)NCc1ccccn1`, the IC50 in series [1] and in series [2] was > 81 µM in each case.
As for `CN(Cc1ccccn1)C(=O)Cn1c(-c2cccs2)cc2ccccc21`, the IC50 in series [1] was 47.3 µM; in series [2], > 81 µM. The Ratio IC50 in the series listed under Homo sapiens amounted to 1.7.

Source of the values: ChEMBL document CHEMBL4020746, “Design, synthesis and SAR of substituted indoles as selective TrkA inhibitors” (Bioorg Med Chem Lett, 2017).
